Test results published in patent publication US7041815B2, “Sporamin promoter and uses thereof” (Sinon Corporation, priority 2001, dated 2006).

How the values were obtained:
Format in all cases: in vivo, Nicotiana tabaccum cv. W38
[1] = system: sporamin promoter fused to the GUS reporter gene; test: Pspoa-GUS activity in response to elicitors sprayed onto leaves (fluorometric GUS assay); conditions: for effect on the sporamin promoter function (in words): treatment alone
Protocol: The plasmid was transformed into tobacco cells (Nicotiana tabaccum cv. W38) using Agrobacterium tumefaciens LBA4404 in the leaf disc method (Hörsch et al. (1985). Science 227:1229–1231). […] Two lines, Tspoa11 and Tspoa37 were selected for further analysis. GUS activity was measured in the leaves of plants obtained from these lines as follows. A middle leaf of the mature tobacco plant was injured with a scissors. Two hours later, wounded and unwounded leaves were harvested, mixed with GUS extraction buffer (50 mM sodium phosphate, pH 7.0, 10 mM EDTA, 10 mM β-mercaptoethanol, 0.1% sodium lauryl sarcosine, 0.1% Triton X-100), frozen, and grounded into a fine powder with a mortar and pestle while in liquid nitrogen. The sample was thawed and centrifuged at 12,000×g for 10 minutes at 4° C. The total protein content was determined using the method of Bradford ((1976) Anal. Biochem. 72:248–254). GUS activity was measured in a fluorometric assay by the addition of 4-methylumbelliferyl-β-D-glucuronide substrate and monitoring the reaction in a […] to determine […] of activity following the method of Jefferson ((1987) EMBO J 6:3901–3908).
The activity the Pspoa-GUS fusion was monitored in response to spraying with the elicitor, methyl jasmonate. Solutions of 50 μM and 100 μM methyl jasmonate were prepared and sprayed onto leaves using a commercial atomizer. Sodium phosphate buffer, pH 7.0, was used as a control solution.
The activity of the sporamin promoter fused to the GUS reporter gene was monitored in response to abscisic acid (ABA). Solutions of 100 μM and 200 μM ABA were prepared and sprayed onto leaves using a commercial atomizer.

[2] = system: sporamin promoter fused to the GUS reporter gene; test: as above; conditions: 1 mM sprayed onto leaves of Pspoa-GUS tobacco
GUS reporter gene = test: Pspoa-GUS activity in response to leaf wounding (fluorometric GUS assay)
Description: To analyze the properties of the sporamin promoter, the promoter was operably linked to the reporter gene β-glucuronidase (GUS). The plasmid pBI101 is a Ti plasmid binary vector harboring the GUS gene in a form lacking a promoter (Clontech, Palo Alto Calif.). The sporamin promoter was excised with the restriction endonucleases XbaI and BamHI, isolated, and ligated into compatible sites of a restricted pBI101 nucleic acid. The resulting plasmid construct, termed pBI101/Pspoa, was verified by restriction mapping and nucleic acid sequencing.
Two lines, Tspoa11 and Tspoa37 were selected for further analysis. GUS activity was measured in the leaves of plants obtained from these lines as follows. A middle leaf of the mature tobacco plant was injured with a scissors. Two hours later, wounded and unwounded leaves were harvested, mixed with GUS extraction buffer (50 mM sodium phosphate, pH 7.0, 10 mM EDTA, 10 mM β-mercaptoethanol, 0.1% sodium lauryl sarcosine, 0.1% Triton X-100), frozen, and grounded into a fine powder with a mortar and pestle while in liquid nitrogen. The sample was thawed and centrifuged at 12,000×g for 10 minutes at 4° C.
GUS activity was monitored as described above at various intervals after leaf wounding.

[3] = 100 μM sprayed onto leaves of Pspoa-GUS tobacco
[4] = 200 μM sprayed onto leaves of Pspoa-GUS tobacco

CC1=CC(=O)CC(C)(C)[C@@]1(O)/C=C/C(C)=C\C(=O)O [ABA, abscisic acid] was tested, and the GUS activity [1, 3] was 170 nmole MU/min/mg protein, the “induction of the sporamin promoter (in words)” value ([1]; 100 μM, fluorometric assay) was “potent inducer” and the GUS activity [1, 4] was 60 nmole MU/min/mg protein.

O=C(O)c1ccccc1O [SA, salicylic acid] was tested, and the GUS activity [2] was 21 nmole MU/min/mg protein, the GUS activity [1, 4] was 15 nmole MU/min/mg protein and the “sporamin promoter activity when treatment precedes wounding or methyl jasmonate treatment (in words)” value ([1]; pre-treatment before wounding / methyl jasmonate) was “less sporamin promoter activity was observed”. The “effect on the sporamin promoter function (in words)” value [1] was “no effect”.

With C=C [ethylene] the “effect on the sporamin promoter function (in words)” value [1] was “no effect”.

CC/C=C\CC1C(=O)CCC1CC(=O)OC (stereo not shown) [methyl jasmonate] gave a GUS activity ([1]; 50 μM sprayed onto leaves of Pspoa-GUS tobacco) of 420 nmole MU/min/mg protein, a GUS activity [1, 3] of 225 nmole MU/min/mg protein and a GUS activity increase ([1]; two hours after spraying with 50 μM) of 37 fold. For the same molecule, the GUS activity increase ([1]; two hours after spraying with 100 μM) was 20 fold.

B1: sporamin promoter: 1.25 kb sweet potato (Ipomoea batatas) sporamin promoter sequence, SEQ ID NO:1 (nucleic acid)
DNA: CGACGGCCCGGGCTAGGTCAAGTAACCCGAACTTGGTCAAGTTTGTTATAACTTATTCTCCCTTTTTCGTGAGGGCGGTTAGGGGACTTAGTATAAATAGGAGTGTAATCGGGCTTGTTAAGACATATTGAACTCACCTGTAATAGCATTACATTTCTCGTAAATACGTACAATATCCTTGTCTTTCCAATAACATTTTTGTCTTTTACCATTATCTTTTATCCAATCCTTTAATTATCGAGTTTGTTAATTCAGATCACCCAAATTAATTAAATCCATCATTTGGATTAAGTTATCTTACTTTACTAATTAGAGTTTTTATCTTCAGAGGAAGGAAGAAGAAAATTAATTGACATGACTCTCATCGGGTTGCACTCCACCCATTATGTTATACAATGCAAACTCTTTTAAAATAAATTAAAATTATATATATATATAATAGTGCAACCTACATCACTTTTTCAATGTGGGACGAAAGCACCTTCAAAAGTCTTTCGAACCCCATTTTTCCTCGAATATATTTTGAGAATCAATTTCTCAATTAATCATTATTATCCATCTTCGTGTACATATATAATATATATATCACATTAAACATCTAACTTAGAAGAACTCAAATTTATTTTTAACTCTACTTATATCAAAAGTGGACTCTACTGAAAATTATACCACAAAATGATATTTTAAACGTTATATTTAACAAAAATTTCTGACATTATCTTATTTAATCTTCTACTAGTTAGAATAATAAAACAAATTTCACTCATAACATAAATTTAAATAGTGATCGTGAATTTTTACGGAAATTAATCAAATAATTGTATGTAATAATGTAATGTAATGAATTTTGATGATGGGTAAAATGTATTTTAATTATTACACGACTTGCCTTCTTTAATTTGTTCTTAGGATCCTAGACTTCATCCCTGCATAGCAAAACCATTGGACACTTGGACGGCCACAAATCATTTCTATTTTCTCCCAACTCCTCCTGTCAGCATGGGATCATTATCAACTTTATCTCATCCCATTACACACCGTAAGTGTACCATCCATCGCTCAATCACTGTATACTTAAATCTCCAGATTAAGTCACTAAATAACTGTGTTGGACTGTGAAAACTTTGAGTAAAAAAAGGCAAAATACTCTTAAAACTGTACAAAAAACAATAATTCAACCCTTACTCTTGTTGTCTATAAATTGGATGCATGAGAGCTCAACACAACACAACACCACCAACAAATTAAACATCATTACCTCTTAGCTTTTCTCCCAAGTTGTC
modifications: Ipomoea batatas
B1 was tested, and the “time GUS expression remained above 250 nmole MU/min/mg after wounding” value (GUS reporter gene; leaf wounding) was “at least 50 hours”, the “time to induction of GUS expression after wounding” value (GUS reporter gene; leaf wounding) was at most 15 min and the “maximum GUS expression level over the uninduced (unwounded) level” value (GUS reporter gene; maximum at 12 hours after wounding) was 16 fold. The “level of GUS expression after leaf wounding” value (GUS reporter gene; within 2 hours of wounding) was “over 250 nmole MU/min/mg of protein”.
